Source: PMC8836073, “Activatable Peptides for Rapid and Simple Visualization of Protease Activity Secreted in Living Cells” (International Journal of Molecular Sciences, 2022)

Columns and labels:
[1] = test system: HT-1080 cells (MMP2-positive); assay: Live cell confocal imaging of peptide uptake in HT-1080 cells; assay type: cell-based, Human; details: for intracellular fluorescence (confocal images, FITC channel): HT-1080, peptide final 10 μM in serum-free CM, 2 h after treatment
Description: (§1) For live cell imaging, HT-1080 or HT-29 cells were cultured in Lab-Tek II chambered coverglass (Thermo Fisher Scientific) containers in RPMI-1640 media containing 10% FBS and 1× P/S at 37 °C. When the cells were 80% confluent, the culture medium was rinsed and changed to a fresh serum-free medium, followed by the addition of peptide probes at a final concentration of 10 μM. For organelle images, nuclei and lysosomes (or late endosomes) were stained with NucBlue (1 drop) and Lysotracker Red (50 nM) in serum-free media, respectively, and incubated in the dark for 10 min. After washing of the cells and removal of the chamber, cells adhering to the coverglass were subjected to bright-field or fluorescent images using a confocal microscope (Nikon C2si+, Japan). The excitation/emission wavelengths of NucBlue, FITC, and Lysotracker Red were 352/454 nm, 488/525 nm, and 577/590 nm, respectively. Typically, images were collected using a pixel dwell time of 10.3 μs on a 512 × 512 pixel image with 1 mW light power at the objective through a pinhole (60 μm) to reach the PMT. The frame rate was rather slow; the frame rate was about 0.255 FPS (frame per second) for a 512 × 512 frame (i.e., 1 frame per 3.9 s). To gain time-lapse images for FITC in living cells, one video file was constructed with images taken every 20 s for 30 min. Imaging analysis was performed using the NIS-Elements microscope imaging software (Ver 2.0).

HeLa cells = assay: Peptide uptake in HeLa cells; assay type: cell-based; details: unlike HT-1080 cells
active MMP2 = target: T1, active MMP2 (Homo sapiens, UniProt P08253); assay: Fluorescent gel electrophoresis of peptide cleavage by active MMP2; assay type: biochemical; details: peptide final 50 μM, active MMP2 final 0.1 μg in 40 μL; 20 mM Tris-HCl, 5 mM CaCl2, 100 mM NaCl, pH 7.6; 120 min, 37 °C; 0.8% agarose gel, FITC fluorescence
T1 construct: active MMP2 (No. PF023), and active MMP9 (No. PF024) were purchased from Merck Millipore; purchased Merck Millipore PF023
T1 sequence (P08253 110-660): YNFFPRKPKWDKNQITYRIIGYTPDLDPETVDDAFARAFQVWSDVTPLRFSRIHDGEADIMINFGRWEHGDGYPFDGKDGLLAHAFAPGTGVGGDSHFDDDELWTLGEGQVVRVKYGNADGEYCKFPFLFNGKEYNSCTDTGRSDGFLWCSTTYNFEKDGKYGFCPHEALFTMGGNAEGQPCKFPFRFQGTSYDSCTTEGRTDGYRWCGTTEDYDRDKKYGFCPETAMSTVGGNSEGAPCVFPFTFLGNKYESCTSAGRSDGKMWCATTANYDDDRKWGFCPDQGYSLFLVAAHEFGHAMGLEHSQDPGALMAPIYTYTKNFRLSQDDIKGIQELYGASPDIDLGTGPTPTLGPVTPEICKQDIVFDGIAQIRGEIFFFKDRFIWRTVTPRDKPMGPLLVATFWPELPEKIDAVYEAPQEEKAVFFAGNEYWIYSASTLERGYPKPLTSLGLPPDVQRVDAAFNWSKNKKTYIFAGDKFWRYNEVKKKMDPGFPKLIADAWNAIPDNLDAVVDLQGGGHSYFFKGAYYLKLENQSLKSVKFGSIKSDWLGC
Description: (§2) Fluorescent gel electrophoresis was performed on 0.8% agarose gel at 50 V for 60 min. The agarose gel was cast and run using 0.5 × TB buffer. For the protease assay, Pep1 or Pep2 (1 μL at 2 mM, final 50 μM) was mixed with active MMP2 or active MMP9 (1 μL, final 0.1 μg) at a final volume of 40 μL in standard reaction buffer (20 mM Tris-HCl containing 5 mM CaCl2 and 100 mM NaCl, pH 7.6). The reactants were incubated in a tube for 120 min at 37 °C to induce the enzyme reaction, and 30 μL of the solution were loaded onto the agarose gel. As a control, a solution of Pep1 or Pep 2 (1 μL at 2 mM) without enzymes was resuspended in a reaction buffer (for a total of 40 μL), and the aliquot (30 μL) was used in gel electrophoresis. The fluorescent image of the agarose was captured using a home-built transilluminator equipped with a blue light-emitting diode lamp. The original image underwent a pseudo-color imaging process using an image-editing function in Microsoft PowerPoint 365.

active MMP9 = target: T2, active MMP9 (Homo sapiens, UniProt P14780); assay: Fluorescent gel electrophoresis of peptide cleavage by active MMP9; assay type: biochemical; details: peptide final 50 μM, active MMP9 final 0.1 μg in 40 μL; 20 mM Tris-HCl, 5 mM CaCl2, 100 mM NaCl, pH 7.6; 120 min, 37 °C; 0.8% agarose gel, FITC fluorescence
T2 construct: active MMP2 (No. PF023), and active MMP9 (No. PF024) were purchased from Merck Millipore; purchased Merck Millipore PF024
T2 sequence (P14780 107-707 limits assumed): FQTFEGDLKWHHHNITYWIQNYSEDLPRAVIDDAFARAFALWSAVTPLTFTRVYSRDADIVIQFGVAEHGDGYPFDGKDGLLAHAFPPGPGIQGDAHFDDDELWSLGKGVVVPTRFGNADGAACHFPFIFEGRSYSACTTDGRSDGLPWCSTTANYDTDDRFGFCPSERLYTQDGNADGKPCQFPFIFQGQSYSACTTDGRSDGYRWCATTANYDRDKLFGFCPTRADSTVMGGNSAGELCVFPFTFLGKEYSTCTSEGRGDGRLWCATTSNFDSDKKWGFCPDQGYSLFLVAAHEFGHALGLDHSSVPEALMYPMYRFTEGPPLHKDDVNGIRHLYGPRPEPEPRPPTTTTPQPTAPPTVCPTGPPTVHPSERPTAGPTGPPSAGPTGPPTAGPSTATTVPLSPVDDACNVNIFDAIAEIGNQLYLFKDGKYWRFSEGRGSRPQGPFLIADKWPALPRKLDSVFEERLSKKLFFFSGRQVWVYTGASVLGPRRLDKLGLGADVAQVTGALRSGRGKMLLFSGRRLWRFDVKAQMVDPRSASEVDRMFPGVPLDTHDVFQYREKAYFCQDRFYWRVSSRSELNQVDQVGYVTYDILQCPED
Description: as §2

[2] = FITC fluorescence; no reference given; cited from earlier work
Description: Figure 4A,B were nearly identical to the images obtained at 2 h in Figure 3A,B, respectively. […] There was no signi ...

[3] = target: T3, MMP2 secreted by HT-1080 cells (Homo sapiens, UniProt P08253); assay: Pep1 intracellular fluorescence in HT-1080 cells with MMP2 inhibitor; assay type: cell-based; details: HT-1080, Pep1 final 10 μM, MMP2 inhibitor (Figure S3)
T3 construct: endogenous in cells; host or cells: HT-1080 human fibrosarcoma cells
T3 sequence (P08253 110-660): T1 sequence (P08253 110-660)
Description: as §1, with “Imaging analysis was performed using the NIS-Elements microscope imaging software (Ver 2.0).” left out

[4] = test system: HT-29 cells (MMP2-negative); assay: Live cell confocal imaging of peptide uptake in HT-29 cells; assay type: cell-based, Human
Description: as §1, with “Imaging analysis was performed using the NIS-Elements microscope imaging software (Ver 2.0).” left out

intracellular fluorescence (confocal images, FITC channel) ([1]; 37 °C)	uptake by HeLa cells (HeLa cells)	cleavage by active MMP2 (fluorescent band shift on agarose gel) (active MMP2)	cleavage by active MMP9 (fluorescent band shift on agarose gel) (active MMP9)	Compound	other results
strong fluorescence images	did not take up	–	–	GGIPVSLRSGGGRRRRK-FITC [Pep3, FITC-labeled positive control peptide without E4]	–
No significant fluorescence images	–	did not show any fluorescent band shifts	did not show any fluorescent band shifts	EEEEGGRRRRK-FITC [Pep2]	–
–	did not take up	–	–	LRSGGG-R4-FITC [cleaved Pep1, fluorescent fragment of Pep1 after MMP2 cleavage]	–
–	–	–	–	fluorescein isothiocyanate [FITC]	pKa [2]: 6.5
–	–	–	–	O=C(O)[C@@H](Cc1ccccc1)NS(=O)(=O)c1ccc(-c2ccccc2)cc1 [MMP2 inhibitor, (2R)-2-[(4-biphenylylsulfonyl)amino]-3-phenylpropionic acid]	effect on intracellular fluorescence intensity of Pep1 [3]: significantly reduced
strong fluorescence images	–	strong fluorescent band shift	less effective than that by MMP2	EEEEGGIPVSLRSGGGRRRRK-FITC [Pep1]	cellular uptake ([1]; HT-1080 cells, 30 min, percentage of FITC-stained cells over total cells): 40~60%; time-lapse signal intensity (0 to 30 min) ([1]; living HT-1080, peptide final 10 μM, 37 °C, compared to Pep2, triplicate experiments): increased even after just 5 min; intracellular fluorescence (confocal images, FITC channel) ([4]; HT-29, peptide final 10 μM in serum-free CM, 2 h after treatment, 37 °C): No significant fluorescence images; time-lapse fluorescence (30 min) ([4]; living HT-29, Pep1 final 10 μM, 30 min): no significant increase
